From ChEMBL document CHEMBL1136370, “Structure-activity relationship on human serum paraoxonase (PON1) using substrate analogues and inhibitors” (Bioorg Med Chem Lett, 2003) come the findings set out here.

For series [1], the target named is T1, Serum paraoxonase/arylesterase 1 (Homo sapiens, UniProt P27169). Put plainly: Inhibitory activity against human serum paraoxonase (PON1); Not active.
Another series concerns PON1. In words: Time taken for 50% to be consumed by serum PON1 was determined. Format: ADME. The settings on record: human.
Series [2] can be described thus: Time taken for 50% to be consumed by serum PON1; NH is Not hydrolysed. Format: ADME. As to conditions: human; call rule not given here.
Series [3] has as its target T1, Serum paraoxonase/arylesterase 1. Put plainly: Inhibitory activity against human serum paraoxonase (PON1).

pIC50: −log10 of the molar value.

T1 sequence (P27169 whole entry): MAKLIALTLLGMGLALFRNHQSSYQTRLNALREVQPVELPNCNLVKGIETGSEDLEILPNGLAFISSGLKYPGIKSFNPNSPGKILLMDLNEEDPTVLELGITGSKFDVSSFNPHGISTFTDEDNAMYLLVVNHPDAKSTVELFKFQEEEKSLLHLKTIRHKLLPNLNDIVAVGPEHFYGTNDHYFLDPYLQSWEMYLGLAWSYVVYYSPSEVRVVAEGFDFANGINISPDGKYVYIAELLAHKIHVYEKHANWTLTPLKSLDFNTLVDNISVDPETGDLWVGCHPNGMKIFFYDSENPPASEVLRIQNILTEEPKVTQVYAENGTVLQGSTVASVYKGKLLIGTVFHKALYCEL

As for `CC(=O)Oc1ccc(N)cc1`, the IC50 result in series [1] is given as “Not Active”. Besides, the half-life in the series on PON1 came to 20 min.
For `COc1ccc(OC(C)=O)cc1` the same measures were “Not Active” and 20 min.
Take `CCOP(=O)(OCC)Oc1ccc(N)cc1`: in series [2], the T1/2 result is “Not hydrolysed”. The compound further gave a pIC50 in series [3] of 2.89.
In the case of `CC(=O)Oc1ccc([N+](=O)[O-])cc1` [4-NITROPHENYL ACETATE], the IC50 entry in series [1] is on record as “Not Active”. The same compound yielded a half-life in the series with PON1 of 3.5 min.
For the compound `CC(=O)Oc1ccccc1` [ACETIC ACID PHENYL ESTER], in series [1], the IC50 result was “Not Active”. This compound also had a half-life with PON1 of 1.5 min.
Turning to `CCOP(=O)(OCC)Oc1ccc([N+](=O)[O-])cc1` [PARAOXON], the IC50 result in series [1] is on record as “Not Active”. For the same compound, the half-life with PON1 was 1460 min.
As for `O=P(O)(O)Oc1ccccc1` [PHENYL DIHYDROGEN PHOSPHATE], the T1/2 result in series [2] is listed as “Not hydrolysed”. Further, in series [3], the pIC50 was 2.49.
On the same counts, the results for `CCOP(=O)(OCC)Oc1ccccc1` [PHOSPHORIC ACID DIETHYL ESTER PHENYL ESTER] are “Not hydrolysed” and 2.49.
On the same counts, the results for `O=[N+]([O-])c1ccc(OP(=O)(O)O)cc1` [p-NITROPHENYLPHOSPHATE] are “Not hydrolysed” and 1.73.

The term half-life denotes how long it takes for the measured level to halve. Read a low half-life as rapid decline. In general, pIC50 refers to the negative decadic logarithm of the IC50, by convention in mol/L. Read a high pIC50 as a low IC50.
